Among the data in PubChem BioAssay AID256 (DTP/NCI, 2004) are T/C values, retold here.

Inconclusive results and toxic doses are left out.

The test relates to CD2F1 mice, L1210 leukemia ip, survival T/C. The experiment in a line: NCI In Vivo Anticancer Drug Screen. Data for tumor model L1210 Leukemia (intraperitoneal) in CD2F1 (CDF1) mice. The following applies: higher = longer survival. In outline:
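Compound-dosed mice with transplantable tumor versus matched vehicle controls; endpoint ratio T/C reported.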

[1] abbreviates: endpoint: mean survival time, dose: 12.5 mg/kg/injection, schedule: Q01DX009 (ip), vehicle: water.
Setting [2] is: endpoint: mean survival time, dose: 25.0 mg/kg/injection, schedule: Q01DX009 (ip), vehicle: water.
[3] abbreviates: endpoint: mean survival time, dose: 100.0 mg/kg/injection, schedule: Q04DX003 (ip), vehicle: saline with Tween-80.
The mark [4] stands for this setting: endpoint: mean survival time, dose: 200.0 mg/kg/injection, schedule: Q04DX003 (ip), vehicle: saline with Tween-80.
The mark [5] stands for this setting: endpoint: mean survival time, dose: 100.0 mg/kg/injection, schedule: Q01DX009 (ip), vehicle: saline.
The mark [6] stands for this setting: endpoint: mean survival time, dose: 200.0 mg/kg/injection, schedule: Q01DX009 (ip), vehicle: saline.
Setting [7] is: endpoint: mean survival time, dose: 100.0 mg/kg/injection, schedule: Q01DX001 (ip), vehicle: saline.
The mark [8] stands for this setting: endpoint: mean survival time, dose: 200.0 mg/kg/injection, schedule: Q01DX001 (ip), vehicle: saline.
The mark [9] stands for this setting: endpoint: mean survival time, dose: 400.0 mg/kg/injection, schedule: Q01DX001 (ip), vehicle: saline.
Setting [10] is: endpoint: mean survival time, dose: 6.25 mg/kg/injection, schedule: Q01DX009 (ip), vehicle: saline with Tween-80.
The mark [11] stands for this setting: endpoint: mean survival time, dose: 12.5 mg/kg/injection, schedule: Q01DX009 (ip), vehicle: saline with Tween-80.
Where [12] appears, read: endpoint: mean survival time, dose: 25.0 mg/kg/injection, schedule: Q01DX009 (ip), vehicle: saline with Tween-80.
[13] abbreviates: endpoint: mean survival time, dose: 400.0 mg/kg/injection, schedule: Q04DX003 (ip), vehicle: saline with Tween-80.

Take `COC(=O)C1=NNC(C(=O)OC)=NN1`: the T/C is, setting by setting: under setting [1], 95 % of control; under setting [2], 95 % of control; (endpoint: mean survival time, dose: 50.0 mg/kg/injection, schedule: Q01DX009 (ip), vehicle: water) 98 % of control; (endpoint: mean survival time, dose: 100.0 mg/kg/injection, schedule: Q01DX009 (ip), vehicle: water) 105 % of control; (endpoint: mean survival time, dose: 200.0 mg/kg/injection, schedule: Q01DX009 (ip), vehicle: water) 90 % of control.

As for `N[N+]#COC1C(C(=O)NN)C1C(=O)NN` (centres undefined), the T/C (endpoint: median survival time, dose: 50.0 mg/kg/injection, schedule: Q04DX002 (ip), vehicle: saline with Tween-80) is 94 % of control; the T/C (endpoint: median survival time, dose: 100.0 mg/kg/injection, schedule: Q04DX002 (ip), vehicle: saline with Tween-80) was 105 % of control; the T/C (endpoint: median survival time, dose: 400.0 mg/kg/injection, schedule: Q04DX002 (ip), vehicle: saline with Tween-80) was 105 % of control.

`NCCc1ccccn1`: the T/C under setting [3] is 96 % of control and the T/C under setting [4] was 101 % of control.

In the case of `O=S(=O)(F)c1cc(C[P+](c2ccccc2)(c2ccccc2)c2ccccc2)ccc1Cl`, the T/C is, setting by setting: (endpoint: mean survival time, dose: 6.25 mg/kg/injection, schedule: Q04DX003 (ip), vehicle: saline with Tween-80) 104 % of control; (endpoint: mean survival time, dose: 12.5 mg/kg/injection, schedule: Q04DX003 (ip), vehicle: saline with Tween-80) 104 % of control; (endpoint: mean survival time, dose: 25.0 mg/kg/injection, schedule: Q04DX003 (ip), vehicle: saline with Tween-80) 116 % of control.

Consider `CCOC(=O)Cc1cnc(SC)[nH]c1=O`, for which the T/C by setting is: (endpoint: mean survival time, dose: 50.0 mg/kg/injection, schedule: Q04DX003 (ip), vehicle: Klucel (hydroxypropylcellulose) (HPC)) 111 % of control; (endpoint: mean survival time, dose: 100.0 mg/kg/injection, schedule: Q04DX003 (ip), vehicle: Klucel (hydroxypropylcellulose) (HPC)) 106 % of control; (endpoint: mean survival time, dose: 200.0 mg/kg/injection, schedule: Q04DX003 (ip), vehicle: Klucel (hydroxypropylcellulose) (HPC)) 106 % of control; (endpoint: mean survival time, dose: 600.0 mg/kg/injection, schedule: Q04DX003 (ip), vehicle: Klucel (hydroxypropylcellulose) (HPC)) 100 % of control.

Regarding `CC(C)n1c(=S)[nH]c2ccccc2c1=O`, the T/C is, setting by setting: under setting [5], 97 % of control; under setting [6], 100 % of control; (endpoint: mean survival time, dose: 400.0 mg/kg/injection, schedule: Q01DX009 (ip), vehicle: saline) 100 % of control.

As to `Cn1ncc2c(N)nc(-c3ccccn3)nc21`, the T/C by setting is: (endpoint: mean survival time, dose: 12.5 mg/kg/injection, schedule: Q01DX005 (ip), vehicle: water) 97 % of control; (endpoint: mean survival time, dose: 25.0 mg/kg/injection, schedule: Q01DX005 (ip), vehicle: water) 94 % of control; (endpoint: mean survival time, dose: 50.0 mg/kg/injection, schedule: Q01DX005 (ip), vehicle: water) 91 % of control; (endpoint: mean survival time, dose: 100.0 mg/kg/injection, schedule: Q01DX005 (ip), vehicle: water) 94 % of control.

With `CN(C(=O)Nc1cccc([N+](=O)[O-])c1)c1ccccc1`, the T/C is, setting by setting: under setting [7], 102 % of control; under setting [8], 98 % of control; under setting [9], 98 % of control.

`O=C1C=C(C2OC(CO)C(O)C2O)C(=O)N1` (centres undefined): the T/C runs as follows: (endpoint: mean survival time, dose: 5.0 mg/kg/injection, schedule: Q01DX009 (ip), vehicle: saline with Tween-80) 106 % of control; (endpoint: mean survival time, dose: 10.0 mg/kg/injection, schedule: Q01DX009 (ip), vehicle: saline with Tween-80) 111 % of control; (endpoint: mean survival time, dose: 20.0 mg/kg/injection, schedule: Q01DX009 (ip), vehicle: saline with Tween-80) 111 % of control.

`O=C(OC1COC(OCc2ccccc2)C(OC(=O)c2ccccc2)C1OC(=O)c1ccccc1)c1ccccc1` (centres undefined): the T/C was 102 % of control under setting [10], 105 % of control under setting [11] and 108 % of control under setting [12].

As for `O=C(Nc1ccccc1Cl)Nc1ccccc1Cl`, the T/C (endpoint: mean survival time, dose: 100.0 mg/kg/injection, schedule: Q04DX002 (ip), vehicle: saline with Tween-80) is 90 % of control; the T/C (endpoint: mean survival time, dose: 200.0 mg/kg/injection, schedule: Q04DX002 (ip), vehicle: saline with Tween-80) was 94 % of control; the T/C (endpoint: mean survival time, dose: 400.0 mg/kg/injection, schedule: Q04DX002 (ip), vehicle: saline with Tween-80) is 94 % of control.

As to `Cc1c2ccccc2c(C)c2c1ccc1ccccc12`, the T/C under setting [12] was 106 % of control; the T/C under setting [3] was 106 % of control; the T/C (endpoint: mean survival time, dose: 125.0 mg/kg/injection, schedule: Q04DX003 (ip), vehicle: Klucel (hydroxypropylcellulose) (HPC)) was 121 % of control.

For the compound `C[C@]12CC[C@H](O)CC1=CC[C@@H]1[C@@H]2CC[C@]2(C)C(=O)CC[C@@H]12`, the T/C (endpoint: mean survival time, dose: 50.0 mg/kg/injection, schedule: Q01DX009 (ip), vehicle: Klucel (hydroxypropylcellulose) (HPC)) was 98 % of control; the T/C (endpoint: mean survival time, dose: 100.0 mg/kg/injection, schedule: Q01DX009 (ip), vehicle: Klucel (hydroxypropylcellulose) (HPC)) is 102 % of control; the T/C (endpoint: mean survival time, dose: 200.0 mg/kg/injection, schedule: Q01DX009 (ip), vehicle: Klucel (hydroxypropylcellulose) (HPC)) was 94 % of control; the T/C (endpoint: median survival time, dose: 25.0 mg/kg/injection, schedule: Q01DX009 (ip), vehicle: saline with Tween-80) was 101 % of control; the T/C (endpoint: median survival time, dose: 50.0 mg/kg/injection, schedule: Q01DX009 (ip), vehicle: saline with Tween-80) was 101 % of control; the T/C (endpoint: median survival time, dose: 100.0 mg/kg/injection, schedule: Q01DX009 (ip), vehicle: saline with Tween-80) is 92 % of control. For the same compound, the T/C (endpoint: median survival time, dose: 200.0 mg/kg/injection, schedule: Q01DX009 (ip), vehicle: saline with Tween-80) is 92 % of control and the T/C (endpoint: median survival time, dose: 400.0 mg/kg/injection, schedule: Q01DX009 (ip), vehicle: saline with Tween-80) was 91 % of control.

For the compound `CC(O)C(NC(=O)c1cnc(OCc2ccccc2)nc1N)C(=O)O` (centres undefined), the T/C under setting [10] was 104 % of control, the T/C under setting [11] was 100 % of control and the T/C under setting [12] is 104 % of control.

`CCN(CC)Cc1cc(Nc2ncnc3sc(C)c(C)c23)ccc1O`: the T/C runs as follows: under setting [3], 92 % of control; under setting [4], 88 % of control; under setting [13], 91 % of control.

Consider `Clc1ccc(C#Cc2ccc(Cl)cc2)cc1`, for which the T/C is, setting by setting: (endpoint: mean survival time, dose: 75.0 mg/kg/injection, schedule: Q01DX001 (ip), vehicle: other) 103 % of control; under setting [3], 100 % of control; (endpoint: mean survival time, dose: 150.0 mg/kg/injection, schedule: Q01DX001 (ip), vehicle: other) 94 % of control; (endpoint: mean survival time, dose: 300.0 mg/kg/injection, schedule: Q01DX001 (ip), vehicle: other) 88 % of control; under setting [13], 87 % of control.

As to `CCOC(=O)Nc1cc(NCCCCc2ccccc2)c(N)c(N)n1`, the T/C runs as follows: (endpoint: mean survival time, dose: 100.0 mg/kg/injection, schedule: Q01DX001 (ip), vehicle: saline with Tween-80) 102 % of control; (endpoint: mean survival time, dose: 200.0 mg/kg/injection, schedule: Q01DX001 (ip), vehicle: saline with Tween-80) 109 % of control.

As to `c1nc(N2CC2)c2cnn(C3CCCCO3)c2n1` (centres undefined), the T/C is 96 % of control (endpoint: mean survival time, dose: 25.0 mg/kg/injection, schedule: Q04DX003 (ip), vehicle: saline); 103 % of control (endpoint: mean survival time, dose: 50.0 mg/kg/injection, schedule: Q04DX003 (ip), vehicle: saline); 100 % of control (endpoint: mean survival time, dose: 100.0 mg/kg/injection, schedule: Q04DX003 (ip), vehicle: saline).

Regarding `ClC1CC[N-]CC1.ClC1CC[N-]CC1.[Cl][Pt+2]([Cl])([Cl])[Cl]`, the T/C reads like this: under setting [1], 123 % of control; under setting [2], 110 % of control.

`COC(=O)C1C(O)C(C)C(O)OC1C(C)C(O)C(C)/C=C\C=C(/C)C(=O)Nc1c(C)c(OC(C)=O)c2c(c1O)C(=O)C(C)=C1OCOC(/C(C)=C/C(C)=O)=C12` (centres undefined): the T/C under setting [5] was 97 % of control and the T/C under setting [6] was 101 % of control.

Consider `C[n+]1c2ccccc2c(Nc2ccc(NS(=O)(=O)CCCCN=C(N)N)cc2)c2ccc(N)cc21`, for which, for the setting “endpoint: mean survival time, dose: 6.25 mg/kg/injection, schedule: Q01DX009 (ip), vehicle: water”, the T/C was 314 % of control.

Take `CCCCCCCCCCC(CCCCCCCCCC)C1CC(C)CCC1C` (centres undefined): the T/C was 94 % of control under setting [7], 97 % of control under setting [8] and 97 % of control under setting [9].

For `NC(=S)NNc1c(NNC(N)=S)c(=O)c1=O`, the T/C by setting is: under setting [7], 93 % of control; under setting [8], 98 % of control; under setting [9], 102 % of control.
